Measured values from ChEMBL document CHEMBL5465560, “Selectivity Literature for EUbOPEN Chemogenomic Library” (2024).

What was measured:
[1] = target: Tyrosine-protein kinase SYK (Homo sapiens, UniProt P43405); assay: Selectivity interaction (Ambit KINOMEscan and KiNATiv profiling in Jurkat cells) EUB0000090b SYK; assay type: cell-based; conditions: at 1 µM
[2] = target: MAP kinase-activated protein kinase 2 (Homo sapiens, UniProt P49137); assay: Selectivity interaction (KinomeScan (DiscoverX)) EUB0000655a MAPKAPK2; conditions: at 10 µM
[3] = target: T1, Ephrin type-A receptor 1 (Homo sapiens) (UniProt P21709); assay: Selectivity interaction (KinomeScan (DiscoverX)) EUB0001079a EPHA1; conditions: at 1 µM
T1 sequence (whole entry): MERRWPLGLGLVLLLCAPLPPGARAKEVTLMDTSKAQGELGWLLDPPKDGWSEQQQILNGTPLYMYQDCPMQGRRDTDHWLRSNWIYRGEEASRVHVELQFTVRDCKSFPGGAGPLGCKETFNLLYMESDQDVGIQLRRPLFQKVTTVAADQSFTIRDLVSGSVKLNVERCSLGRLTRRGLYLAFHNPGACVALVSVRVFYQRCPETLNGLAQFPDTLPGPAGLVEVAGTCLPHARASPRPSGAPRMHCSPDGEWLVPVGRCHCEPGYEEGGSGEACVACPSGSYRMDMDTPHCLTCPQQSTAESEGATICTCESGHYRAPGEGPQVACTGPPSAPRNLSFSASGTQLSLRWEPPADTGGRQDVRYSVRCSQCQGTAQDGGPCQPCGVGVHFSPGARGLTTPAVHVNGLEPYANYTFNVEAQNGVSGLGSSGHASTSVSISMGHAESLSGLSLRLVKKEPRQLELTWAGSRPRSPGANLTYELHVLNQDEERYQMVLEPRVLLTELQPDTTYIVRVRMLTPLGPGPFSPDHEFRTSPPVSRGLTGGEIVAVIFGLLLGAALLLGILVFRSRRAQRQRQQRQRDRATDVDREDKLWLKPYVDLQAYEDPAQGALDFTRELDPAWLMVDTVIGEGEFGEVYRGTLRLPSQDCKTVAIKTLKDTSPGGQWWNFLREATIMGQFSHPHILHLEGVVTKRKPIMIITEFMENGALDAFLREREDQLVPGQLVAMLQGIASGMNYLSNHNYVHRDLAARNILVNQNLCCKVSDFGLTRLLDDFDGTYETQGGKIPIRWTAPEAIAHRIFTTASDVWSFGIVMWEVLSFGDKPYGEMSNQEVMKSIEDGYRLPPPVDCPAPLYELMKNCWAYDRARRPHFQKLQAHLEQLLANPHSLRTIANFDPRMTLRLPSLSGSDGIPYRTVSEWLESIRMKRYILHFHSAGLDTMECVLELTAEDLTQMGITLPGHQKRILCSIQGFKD

[4] = target: BDNF/NT-3 growth factors receptor (Homo sapiens) (UniProt Q16620); assay: Selectivity interaction (KinomeScan (DiscoverX)) EUB0000618a NTRK2; conditions: at 10 µM
[5] = target: Serine/threonine-protein kinase tousled-like 2 (Homo sapiens) (UniProt Q86UE8); assay: Selectivity interaction (KinomeScan (DiscoverX)) EUB0000618a TLK2; conditions: at 10 µM
[6] = target: Cyclin-dependent kinase 3 (Homo sapiens) (UniProt Q00526); assay: Selectivity interaction (KinomeScan (DiscoverX)) EUB0000045b CDK3
[7] = target: DNA-dependent protein kinase catalytic subunit (Homo sapiens) (UniProt P78527); assay: Selectivity interaction (Kinase panel (KiNativ target engagement assay in Jurkat cells)) EUB0001635a PRKDC; assay type: cell-based; conditions: Selectivity number of off-targets 0.0, Selectivity number of targets 233.0, Source Knowledge https://www.sciencedirect.com/science/article/pii/S2451945619300674?via%3Dihub, at 1 µM
[8] = target: T2, Dual specificity mitogen-activated protein kinase kinase 4 (Homo sapiens) (UniProt P45985); assay: Selectivity interaction (Kinase panel (KiNativ target engagement assay in Jurkat cells)) EUB0001635a MAP2K4; assay type: cell-based; conditions: at 1 µM
T2 sequence (whole entry): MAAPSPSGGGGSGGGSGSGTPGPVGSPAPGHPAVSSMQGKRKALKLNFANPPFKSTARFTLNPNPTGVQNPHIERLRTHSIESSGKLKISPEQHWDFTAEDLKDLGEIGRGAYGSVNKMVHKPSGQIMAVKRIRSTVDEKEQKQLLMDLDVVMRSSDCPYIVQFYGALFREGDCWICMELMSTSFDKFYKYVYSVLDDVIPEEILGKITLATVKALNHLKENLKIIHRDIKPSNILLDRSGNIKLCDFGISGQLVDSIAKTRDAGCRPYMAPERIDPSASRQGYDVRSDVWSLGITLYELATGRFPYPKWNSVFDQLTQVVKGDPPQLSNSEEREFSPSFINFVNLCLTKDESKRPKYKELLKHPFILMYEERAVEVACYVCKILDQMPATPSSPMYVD

[9] = target: Cyclin-dependent kinase 2 (Homo sapiens, UniProt P24941); assay: Selectivity interaction (KinomeScan (DiscoverX)) EUB0001049a CDK2; conditions: at 1 µM
[10] = target: Calcium/calmodulin-dependent protein kinase kinase 2 (Homo sapiens) (UniProt Q96RR4); assay: Selectivity interaction (KinomeScan (DiscoverX)) EUB0000666a CAMKK2; conditions: at 10 µM
[11] = target: Phosphatidylinositol 4,5-bisphosphate 3-kinase catalytic subunit beta isoform (Homo sapiens) (UniProt P42338); assay: Selectivity interaction (KinomeScan (DiscoverX)) EUB0000092b PIK3CB; conditions: at 10 µM
[12] = target: T3, Serine/threonine-protein kinase Sgk3 (Homo sapiens) (UniProt Q96BR1); assay: Selectivity interaction (KinomeScan (DiscoverX)) EUB0000695a SGK3; conditions: at 100 nM
T3 sequence (whole entry): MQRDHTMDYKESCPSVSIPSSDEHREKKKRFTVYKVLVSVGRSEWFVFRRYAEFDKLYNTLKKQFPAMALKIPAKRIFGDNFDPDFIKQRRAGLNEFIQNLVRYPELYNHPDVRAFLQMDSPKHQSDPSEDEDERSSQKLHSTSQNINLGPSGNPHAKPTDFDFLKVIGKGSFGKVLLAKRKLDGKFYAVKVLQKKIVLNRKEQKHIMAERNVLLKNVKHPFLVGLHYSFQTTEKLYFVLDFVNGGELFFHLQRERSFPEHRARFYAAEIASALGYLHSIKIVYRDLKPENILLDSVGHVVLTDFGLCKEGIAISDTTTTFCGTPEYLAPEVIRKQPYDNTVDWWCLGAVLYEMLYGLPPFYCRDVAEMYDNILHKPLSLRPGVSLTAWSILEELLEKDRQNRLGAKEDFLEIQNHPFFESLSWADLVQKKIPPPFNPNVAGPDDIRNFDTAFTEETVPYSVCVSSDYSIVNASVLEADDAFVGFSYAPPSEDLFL

Sequence of Cyclin-dependent kinase 3 (Homo sapiens) (Q00526 whole entry, looked up): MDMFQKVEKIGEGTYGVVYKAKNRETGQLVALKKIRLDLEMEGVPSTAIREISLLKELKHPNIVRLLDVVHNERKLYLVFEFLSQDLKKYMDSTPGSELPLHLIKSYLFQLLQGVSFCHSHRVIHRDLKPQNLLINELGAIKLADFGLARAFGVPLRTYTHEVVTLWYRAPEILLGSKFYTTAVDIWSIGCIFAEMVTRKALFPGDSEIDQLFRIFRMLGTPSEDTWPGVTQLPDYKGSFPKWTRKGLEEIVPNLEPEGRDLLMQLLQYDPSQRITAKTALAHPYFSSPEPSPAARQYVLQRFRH
Sequence of Serine/threonine-protein kinase tousled-like 2 (Homo sapiens) (Q86UE8 whole entry, looked up): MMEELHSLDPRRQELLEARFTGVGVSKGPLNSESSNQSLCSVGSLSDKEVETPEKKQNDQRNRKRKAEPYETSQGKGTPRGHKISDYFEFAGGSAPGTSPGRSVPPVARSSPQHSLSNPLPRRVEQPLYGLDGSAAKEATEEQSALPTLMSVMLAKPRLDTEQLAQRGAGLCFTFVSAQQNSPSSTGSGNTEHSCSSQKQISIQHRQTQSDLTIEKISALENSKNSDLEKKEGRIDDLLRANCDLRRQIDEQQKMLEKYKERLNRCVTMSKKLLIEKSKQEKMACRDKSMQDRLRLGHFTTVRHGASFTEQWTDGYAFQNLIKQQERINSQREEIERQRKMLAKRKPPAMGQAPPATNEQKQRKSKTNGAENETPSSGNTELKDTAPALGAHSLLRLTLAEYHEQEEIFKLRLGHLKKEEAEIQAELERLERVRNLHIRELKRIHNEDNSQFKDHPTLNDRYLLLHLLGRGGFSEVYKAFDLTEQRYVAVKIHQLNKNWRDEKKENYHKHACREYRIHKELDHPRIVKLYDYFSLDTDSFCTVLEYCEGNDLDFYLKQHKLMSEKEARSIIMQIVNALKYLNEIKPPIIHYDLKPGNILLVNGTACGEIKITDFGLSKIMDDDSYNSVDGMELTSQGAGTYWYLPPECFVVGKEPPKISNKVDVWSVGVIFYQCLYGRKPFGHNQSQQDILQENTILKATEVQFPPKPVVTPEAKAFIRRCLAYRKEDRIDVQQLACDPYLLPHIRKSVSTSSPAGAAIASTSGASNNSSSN
Sequence of BDNF/NT-3 growth factors receptor (Homo sapiens) (Q16620 32-822 limits assumed): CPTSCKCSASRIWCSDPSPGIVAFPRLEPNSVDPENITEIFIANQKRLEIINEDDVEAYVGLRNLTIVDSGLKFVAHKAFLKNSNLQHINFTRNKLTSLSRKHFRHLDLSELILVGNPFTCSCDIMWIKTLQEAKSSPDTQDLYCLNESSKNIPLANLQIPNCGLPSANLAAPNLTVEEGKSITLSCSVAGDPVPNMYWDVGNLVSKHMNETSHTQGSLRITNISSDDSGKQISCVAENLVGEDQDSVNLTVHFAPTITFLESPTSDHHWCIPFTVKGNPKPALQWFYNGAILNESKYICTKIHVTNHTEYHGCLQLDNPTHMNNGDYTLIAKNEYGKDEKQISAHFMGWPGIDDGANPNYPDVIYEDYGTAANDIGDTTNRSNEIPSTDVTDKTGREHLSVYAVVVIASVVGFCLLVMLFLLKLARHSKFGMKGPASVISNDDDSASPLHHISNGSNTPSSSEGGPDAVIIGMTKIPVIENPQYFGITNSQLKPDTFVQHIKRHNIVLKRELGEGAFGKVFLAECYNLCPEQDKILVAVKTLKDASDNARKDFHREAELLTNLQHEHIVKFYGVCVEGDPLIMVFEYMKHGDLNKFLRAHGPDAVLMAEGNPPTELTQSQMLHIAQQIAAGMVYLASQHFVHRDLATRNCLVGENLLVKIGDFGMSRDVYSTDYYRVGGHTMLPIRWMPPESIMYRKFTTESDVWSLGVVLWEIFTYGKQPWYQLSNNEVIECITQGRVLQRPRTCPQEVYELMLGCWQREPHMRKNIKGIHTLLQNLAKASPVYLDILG
Sequence of MAP kinase-activated protein kinase 2 (P49137 whole entry, looked up): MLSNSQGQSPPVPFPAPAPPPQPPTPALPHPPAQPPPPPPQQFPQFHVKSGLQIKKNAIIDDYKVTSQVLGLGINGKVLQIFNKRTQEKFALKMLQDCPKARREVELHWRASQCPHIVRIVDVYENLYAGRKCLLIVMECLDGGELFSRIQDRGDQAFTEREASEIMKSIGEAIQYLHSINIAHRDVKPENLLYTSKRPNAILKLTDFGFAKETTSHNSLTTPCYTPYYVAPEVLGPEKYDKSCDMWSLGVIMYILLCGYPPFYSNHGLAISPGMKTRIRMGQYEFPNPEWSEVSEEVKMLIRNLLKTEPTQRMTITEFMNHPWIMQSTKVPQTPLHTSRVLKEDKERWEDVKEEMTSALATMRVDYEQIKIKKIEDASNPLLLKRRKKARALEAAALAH
Sequence of Phosphatidylinositol 4,5-bisphosphate 3-kinase catalytic subunit beta isoform (Homo sapiens) (P42338 whole entry, looked up, canonical isoform): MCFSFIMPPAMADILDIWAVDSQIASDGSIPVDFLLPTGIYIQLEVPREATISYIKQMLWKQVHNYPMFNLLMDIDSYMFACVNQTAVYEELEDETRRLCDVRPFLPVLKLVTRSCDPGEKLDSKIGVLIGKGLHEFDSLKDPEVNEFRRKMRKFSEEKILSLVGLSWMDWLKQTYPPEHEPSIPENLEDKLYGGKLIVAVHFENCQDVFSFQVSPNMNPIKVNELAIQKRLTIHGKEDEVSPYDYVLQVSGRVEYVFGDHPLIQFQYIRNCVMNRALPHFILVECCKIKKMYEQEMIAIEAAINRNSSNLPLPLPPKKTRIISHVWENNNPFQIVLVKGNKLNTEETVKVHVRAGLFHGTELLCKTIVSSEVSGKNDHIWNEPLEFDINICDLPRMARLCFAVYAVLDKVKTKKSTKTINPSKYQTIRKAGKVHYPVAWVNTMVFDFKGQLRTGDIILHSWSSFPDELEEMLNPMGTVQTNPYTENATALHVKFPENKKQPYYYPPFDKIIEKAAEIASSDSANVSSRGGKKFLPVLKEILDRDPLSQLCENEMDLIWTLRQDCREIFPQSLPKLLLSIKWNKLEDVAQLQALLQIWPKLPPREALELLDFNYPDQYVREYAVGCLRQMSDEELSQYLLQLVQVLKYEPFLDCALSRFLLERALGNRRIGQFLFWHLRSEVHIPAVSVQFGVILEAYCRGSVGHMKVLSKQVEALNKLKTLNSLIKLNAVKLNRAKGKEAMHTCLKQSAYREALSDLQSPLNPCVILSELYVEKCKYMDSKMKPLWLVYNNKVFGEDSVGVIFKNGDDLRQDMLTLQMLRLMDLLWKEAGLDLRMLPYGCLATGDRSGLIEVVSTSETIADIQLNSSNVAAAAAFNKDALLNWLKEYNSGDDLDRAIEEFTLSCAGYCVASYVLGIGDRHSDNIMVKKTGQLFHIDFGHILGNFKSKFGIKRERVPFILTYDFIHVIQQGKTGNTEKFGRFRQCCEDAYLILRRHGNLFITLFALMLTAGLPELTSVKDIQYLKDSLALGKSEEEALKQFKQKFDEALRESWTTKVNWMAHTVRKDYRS
Sequence of Calcium/calmodulin-dependent protein kinase kinase 2 (Homo sapiens) (Q96RR4 2-588 limits assumed): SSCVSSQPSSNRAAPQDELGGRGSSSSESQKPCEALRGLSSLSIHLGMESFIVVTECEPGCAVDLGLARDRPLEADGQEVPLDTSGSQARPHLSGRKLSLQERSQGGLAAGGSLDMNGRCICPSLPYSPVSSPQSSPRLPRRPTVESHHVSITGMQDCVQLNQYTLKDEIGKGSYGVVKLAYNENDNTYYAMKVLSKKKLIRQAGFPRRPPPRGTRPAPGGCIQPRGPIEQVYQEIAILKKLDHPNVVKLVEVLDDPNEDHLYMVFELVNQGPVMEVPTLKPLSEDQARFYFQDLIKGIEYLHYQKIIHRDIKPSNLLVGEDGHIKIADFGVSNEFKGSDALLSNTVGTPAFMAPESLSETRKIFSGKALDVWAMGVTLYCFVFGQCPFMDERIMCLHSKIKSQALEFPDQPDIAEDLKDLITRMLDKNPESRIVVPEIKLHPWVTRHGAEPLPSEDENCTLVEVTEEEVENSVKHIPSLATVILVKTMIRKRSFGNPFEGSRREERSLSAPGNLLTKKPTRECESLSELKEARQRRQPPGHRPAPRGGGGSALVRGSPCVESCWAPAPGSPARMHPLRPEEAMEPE

`CN(C)C/C=C/C(=O)Nc1ccc(C(=O)N2CCCC(Nc3ncc(Cl)c(-c4c[nH]c5ccccc45)n3)C2)cc1` (stereo not drawn) was tested, and the % of control [1] was 86%.
`CN(C)CCOc1ccc(-c2nc(-c3ccncc3)c(-c3ccc4c(c3)CC/C4=N\O)[nH]2)cc1` was tested, and the % of control [2] was 100%.
`Nc1cnc(N2CCc3cc(S(=O)(=O)Nc4c(F)cc(Cl)cc4F)cc(N4CCCC4=O)c32)nc1` [TP-020n] showed a % of control [3] of 99%.
In the case of `O[C@H]1CC[C@H](Nc2ncc3nc(Nc4c(F)cc(F)cc4F)n([C@H]4CCOC4)c3n2)CC1`, the % of control [4] was 79% and the % of control [5] was 99%.
`C=CC(=O)Nc1cc(-n2c(=O)ccc3cnc4ccc(-c5ccc(NS(C)(=O)=O)cc5)cc4c32)ccc1C` showed a % of control ([6]; at 1 µM) of 100% and a % of control ([6]; at 10 µM) of 100%.
Compound `C=CC(=O)Nc1ccc(C(=O)Nc2[nH]nc3c2CN(C(=O)N[C@H](CN(C)C)c2ccccc2)C3(C)C)cc1` has a % of engagement [7] of -14% and a % of engagement [8] of 3.9%.
`COc1cc(Nc2nc(C)cc(-c3cnn4nc(OC)ccc34)n2)cc(C(F)(F)F)c1` was tested, and the % of control [9] was 91%.
For `O=C(NOC[C@H](O)CO)c1ccc(F)c(F)c1Nc1ccc(I)cc1F`, the % of control [10] was 100%.
Compound `CCC(=O)N1CCN(c2ccc(-n3c(=O)ccc4cnc5ccc(-c6cnc7ccccc7c6)cc5c43)cc2C(F)(F)F)CC1` has a % of control [11] of 65%.
For `Cc1cc(F)c(C(=O)Nc2cccc(-c3nncn3C(C)C)n2)cc1-n1cnc(C2CC2)c1`, the % of control [12] was 100%.
